{"source": "patent US20050272687A1", "about": "“Stable S-adenosyl-l-methionine” (priority 2004, published 2005)", "origin": "cited, not measured here", "key": {"[1]": {"system": "S-adenosyl-1-methionine-dependent methyltransferases"}, "[2]": {"system": "nucleolar 2-O-methyltransferase"}, "[3]": {"details": "same conditions as in example 10 (room temperature, light, closed bottle), after 4 months"}, "[4]": {"details": "in vivo"}, "[5]": {"system": "alcoholic liver cirrhosis", "details": "oral; as compared with a placebo treated group"}, "[6]": {"details": "during the course of the clinical trial"}}}
{"compound": "C[S@@+](CC[C@@H](N)C(=O)O)C[C@H]1O[C@@H](n2cnc3c(N)ncnc32)[C@H](O)[C@@H]1O", "note": "(racemic) [(+)-SAM, (R,S)-S-adenosyl-1-methionine]", "values": [{"measurement": "inhibition of enzyme-catalyzed transmethylation reactions", "setting": "[1]", "result": "potent inhibitor"}]}
{"compound": "C[S@@+](CC[C@H](N)C(=O)O)C[C@H]1O[C@@H](n2cnc3c(N)ncnc32)[C@H](O)[C@@H]1O", "note": "[(S,S)-S-adenosyl-1-methionine]", "values": [{"measurement": "tightness of enzyme binding relative to (R,S)-S-adenosyl-1-methionine", "setting": "[2]", "result": 10, "unit": "fold"}]}
{"compound": "C[S+](CC[C@H](N)C(=O)O)C[C@H]1O[C@@H](n2cnc3c(N)ncnc32)[C@H](O)[C@@H]1O.C[S+](CC[C@H](N)C(=O)O)C[C@H]1O[C@@H](n2cnc3c(N)ncnc32)[C@H](O)[C@@H]1O.O=S(=O)([O-])CCCCS(=O)(=O)[O-]", "note": "(stereo partly drawn) [S-adenosyl-1-methionine 1,4 butanedisulfonate]", "values": [{"measurement": "deterioration", "setting": "[3]", "result": 43.9, "unit": "%"}, {"measurement": "oral absorption compared with other salts", "setting": "[4]", "result": "better absorbed orally than any other salts"}]}
{"compound": "C[S+](CC[C@H](N)C(=O)O)C[C@H]1O[C@@H](n2cnc3c(N)ncnc32)[C@H](O)[C@@H]1O.Cc1ccc(S(=O)(=O)[O-])cc1", "note": "(stereo partly drawn) [S-adenosyl-1-methionine tosylate]", "values": [{"measurement": "deterioration", "setting": "[3]", "result": 92.9, "unit": "%"}]}
{"compound": "C[S+](CC[C@H](N)C(=O)[O-])C[C@H]1O[C@@H](n2cnc3c(N)ncnc32)[C@H](O)[C@@H]1O", "note": "(stereo partly drawn) [S-adenosyl-1-methionine]", "values": [{"measurement": "overall mortality and/or progression to liver transplant", "setting": "[5]", "result": 29, "unit": "% vs 12%"}, {"measurement": "(R,S) S-adenosyl-1-methionine share after epimerization", "setting": "[6]", "result": 55, "unit": "%"}, {"measurement": "(S,S) S-adenosyl-1-methionine share after epimerization", "setting": "[6]", "result": 45, "unit": "%"}]}
{"compound": "CC(C)NCC(O)COc1cccc2ccccc12", "note": "(stereo not drawn) [propranolol]", "values": [{"measurement": "potency of L-form relative to D-enantiomer", "setting": "beta-adrenergic", "result": 100, "unit": "times"}]}
